Assay: gradient 5% acetonitrile 3 min, to 50% in 2 min, to 85% in 15 min, held 3 min, 100 µL/min
Conditions: column: Zorbax Extend-C18 2.1 x 50 mm; eluents: water / acetonitrile, 0.1% formic acid
Method in brief: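 Using water and acetonitrile that each contained 0.1% formic acid, mixtures of ~100 pure standards were separated at 100 μL/min on a Zorbax Extend-C18 column (2.1 × 50 mm, 1.8 μm). The HPLC fed a quadrupole time-of-flight mass spectrometer working in positive and negative ionization mode, with dead and dwell volumes of 40 μL and 900 μL. Data were acquired over 3 months. Retention time was read from computationally picked adduct peaks after manual inspection of each.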

Row | Structure (SMILES) | RP-LC retention time [s]
1 | CCCn1ccc2sc(C)c(C(=O)N3CCOCC3)c2c1=O | 646
2 | CCc1nc(OCC(=O)Nc2ccccc2F)c2ccccc2n1 | 775
3 | CC1CCN(S(=O)(=O)c2cccc(-c3nnc(-c4ccc(F)cc4)o3)c2)CC1 | 1150
4 | COc1ccc(C(O)CN2CCN(c3ccccc3)CC2)cc1 (configuration not stated) | 630
5 | CSc1ccc(CNC(=O)c2cc(-c3ccncc3)cn2C)cc1 | 655
6 | Cc1cccc(NC(=O)C2(C)CCCCC(=O)N2)c1 (configuration not stated) | 695
7 | O=C(NC1CC1)C1CCc2sc(C(=O)N3CCCCCC3)cc2C1 (configuration not stated) | 736
8 | O=C(CCn1c(=O)oc2ccccc21)NCc1ccc2c(c1)OCO2 | 941
9 | C=CCN(CC=C)c1nc(-c2ccccc2)nc2ccccc12 | 770
10 | CCn1ccc(C(=O)N2CCN(c3ccc(=O)n(-c4ccc(Cl)cc4)n3)CC2)n1 | 753
11 | CC(NC(=O)Cn1cc(C(=O)C(=O)N2CCCC2)c2ccccc21)c1ccc2c(c1)OCCCO2 (configuration not stated) | 815
12 | O=C(NCCC1CCN(C(=O)Nc2cc(F)cc(F)c2)CC1)c1ccsc1 | 688
13 | Cc1cc(C)cc(C(=O)N2CC3CN(S(=O)(=O)c4ccccc4)CC(C2)O3)c1 | 892
14 | COc1cccc(-n2ccn3cc(-c4ccc(Br)cc4)nc3c2=O)c1 | 893
15 | Cc1ccc(-c2ncc(C(=O)Nc3ccccc3Br)c(-c3ccncc3)n2)cc1 | 994
16 | COc1cc(NC(=O)NCCc2nc3cccnc3n2C2CCCCC2)cc(OC)c1OC | 693
17 | O=C(Cc1ccccc1Cl)NCCn1cnc(-c2ccccc2)cc1=O | 715
18 | CCCCNC(=O)c1c(C)c2c(=O)n(CC(=O)Nc3ccc(Br)cc3)ncn2c1C | 826
19 | Cc1[nH]c(C(=O)N2CCC(CC(=O)NCCCN3CCN(c4ccc(F)cc4)CC3)CC2)c(C)c1C | 675
20 | CCOC(=O)c1cnc(N2CCN(c3ccccc3OC)CC2)c2ccccc12 | 1150
21 | O=C(c1cc(F)ccc1Cl)N1CCN(c2cc(-c3ccc(F)cc3)[nH]n2)CC1 | 847
22 | CCCCCNC(=O)c1ccc(Oc2nccnc2N2CCSCC2)cc1 | 1030
23 | COCCCn1c(=O)c2ccccc2n(Cc2nc(-c3ccc(OC(C)C)cc3)no2)c1=O | 1120

Row | Structure (SMILES) | RP-LC retention time [s]
24 | CCC(Sc1nnc2c(n1)[nH]c1ccccc12)C(=O)Nc1nc(-c2ccccc2)cs1 (configuration not stated) | 1050
25 | CNC(=O)C1Cc2ccccc2CN1S(=O)(=O)c1ccc(OC)cc1 (configuration not stated) | 770
26 | COc1cccc(NC(=O)Cn2c(C(C)C)nc3c(c2=O)CN(Cc2ccccc2)CC3)c1 | 687
27 | COc1ccc(Cl)cc1NC(=O)Cn1nc2c(N3CCCCCC3)nccn2c1=O | 804
28 | O=C(Cc1cc(-c2ccccc2)on1)NCCN1CCOCC1 | 566
29 | CCCc1nc(NCc2ccc(OC)c(OC)c2)ncc1C(=O)O | 740
30 | O=C(c1nnc(-c2ccc(S(=O)(=O)N3CCCCC3)cc2)o1)N1CCCC1 | 760
31 | CSc1nnc(-c2nn(C)c3c2CN(C(=O)c2ccccc2)CC3)n1C | 680
32 | CCN1C(=O)c2cccnc2Sc2cc(NC(=O)C3CCCCC3)ccc21 | 877
33 | Cc1cc(-c2ccc(C)c(S(=O)(=O)Nc3ccc(Cl)cc3)c2)n[nH]1 | 898
34 | CCOc1ccc(-c2noc(Cc3nnc(-c4ccc(C)c(C)c4)o3)n2)cc1 | 1200
35 | COc1cc(NC(=O)Cn2ccc3ccc(-c4nnc(C)o4)cc32)cc(OC)c1OC | 726
36 | CC(C)(C)c1nnc2n(c1=O)N=C(c1ccc(F)cc1)CS2 | 857
37 | CCc1ccc(OCc2nc(CCN(C)C(=O)c3cccs3)no2)cc1 | 924
38 | CCc1cccc(C)c1N(C(=O)Cn1c(COC)nc2ccccc21)C(C)COC (configuration not stated) | 850
39 | CSc1cccc(NC(=O)Cn2cccc(-c3nc(-c4ccc(Cl)cc4)no3)c2=O)c1 | 1020
40 | COc1ccc2c(C)c(CCC(=O)N[C@@H](C(=O)O)C(C)C)c(=O)oc2c1C | 746
41 | COc1ccc(N2CCN(C(=O)C3CCN(S(=O)(=O)c4cn(C)cn4)CC3)CC2)cc1 | 628
42 | COCCN1CCn2cc(S(=O)(=O)Nc3ccc(C)cc3F)cc2C1=O | 740
43 | CCOc1cccc(CNC(=O)c2nc3cccnc3n(CC)c2=O)c1 | 548
44 | O=C(Nc1ccc(F)cc1F)NC1CCN(c2ccc(F)cc2)C1=O (configuration not stated) | 823
45 | COc1ccc(Cc2nc(-c3cccc(-c4ccn[nH]4)c3)no2)cc1Cl | 963
46 | CCn1c(-c2ccccc2)cc(C(N)=O)c1C | 591

Row | Structure (SMILES) | RP-LC retention time [s]
47 | Cc1nnc2cc(N3CCN(S(=O)(=O)c4ccc(Br)cc4)CC3)cnn12 | 740
48 | CCc1noc(-c2cc(=O)n(CC(=O)NC(C)CC)c3ccccc23)n1 (configuration not stated) | 816
49 | Cc1ccc2c(Nc3ccc(CC(=O)O)cc3)c(C(=O)N3CCCCC3C)cnc2n1 (configuration not stated) | 580
50 | Cc1nc(-c2ccc(N3CCN(C(=O)c4ccc5c(c4)OCO5)CC3)nc2)sc1C | 813
51 | CN1CCCCCCN(C(=O)c2cccn2C)[C@H]2CCC[C@H]2C1=O | 816
52 | O=C(CSc1nnc(-c2cccnc2)o1)c1cccc([N+](=O)[O-])c1 | 724
53 | Cc1nn(-c2ccc(F)cc2)c(C)c1S(=O)(=O)N1CCC(C(=O)N2CCCCC2)CC1 | 914
54 | Cc1nnc(-c2ccc(OCC(=O)N(C(C)C)C(C)C)cc2)o1 | 708
55 | CCC(=O)NCc1nc2c(n1C)CN(S(=O)(=O)c1ccc(F)cc1F)CC2 | 600
56 | Cc1ccc(C2=NC3(CCN(C(=O)c4ccc(C(C)(C)C)cc4)CC3)ON2)cc1 | 975
57 | O=C(NCC(c1ccsc1)N1CCCCCC1)C(=O)Nc1ccc2c(c1)OCCO2 (configuration not stated) | 570
58 | O=C1/C(=C\c2ccc(O)c(O)c2)Oc2cc(O)ccc21 | 710
59 | CCOC(=O)c1c(C)c(C(=O)CN(CC2CCCO2)C(=O)c2cccc(F)c2)c(C)n1C (configuration not stated) | 920
60 | CCCN1C(=O)COc2ccc(-c3noc(CNC(=O)Cc4ccc(Cl)cc4)n3)cc21 | 1050
61 | COC(=O)c1ccc(NC(=O)N2CCOc3ccc(C)cc32)cc1 | 679
62 | CCOC(=O)c1ccc(Nc2c(-c3ccc(Cl)cc3)nc3cnccn23)cc1 | 964
63 | CCNC(=O)Nc1ccc2c(c1)CN(S(=O)(=O)c1cnn(CC)c1)CCO2 | 704
64 | FC(F)(F)c1cccc(-c2ccc(CNC3CC3)o2)c1 | 695
65 | Cc1ccccc1C1CCCN1C(=O)c1c(Cl)cnn1C (configuration not stated) | 892
66 | CCCOc1nc2ccccc2nc1N1CCCC(C(=O)NCc2ccc(C)cc2)C1 (configuration not stated) | 1240
67 | COc1ccccc1C(=O)NCc1ccc2c(c1)ncn2C(C)C | 603

Reference: the METLIN SMRT retention time set (Domingo-Almenara et al. 2019)
